Laboratory results as given in patent publication US4078058A (priority 1976, dated 1978).

Tests used:
Assay type in all cases: cell-based
Esch. coli = experiment: In vitro inhibition in nutrient broth, Esch. coli; conditions: no growth by 48 hours; inoculum 0.2 ml of 1/10,000 dilution of overnight culture
Experimental: (§1) In these tests bacterial growth was measured or observed by turbidity in the test tubes containing the inoculated nutrient broth after 18-20 hours incubation at 37° C.
(§2) *Concentration -- μM/ml which permitted no growth by 48 hours.
(§3) Inoculum = 0.2 ml of 1/10,000 dilution of overnight culture.

bacterial growth = experiment: Inhibition of bacterial growth in nutrient broth (turbidity), organism not specified; conditions: 18-20 hours incubation at 37° C.
Experimental: as §1

Klebsiella pneumoniae = experiment: In vitro inhibition in nutrient broth, Klebsiella pneumoniae; conditions: no growth by 48 hours; inoculum 0.2 ml of 1/10,000 dilution of overnight culture
Experimental: as §1, §2, §3

Pseudomonas aeruginosa = experiment: In vitro inhibition in nutrient broth, Pseudomonas aeruginosa; conditions: no growth by 48 hours; inoculum 0.2 ml of 1/10,000 dilution of overnight culture
Experimental: as §1, §2, §3

Staph. aureus = experiment: In vitro inhibition in nutrient broth, Staph. aureus; conditions: no growth by 48 hours; inoculum 0.2 ml of 1/10,000 dilution of overnight culture
Experimental: as §1, §2, §3

Structure (SMILES)	Inhibitory concentration, Esch. coli (Esch. coli)	concentration inhibiting bacterial growth (bacterial growth)	Inhibitory concentration, Klebsiella pneumoniae (Klebsiella pneumoniae)	Inhibitory concentration, Pseudomonas aeruginosa (Pseudomonas aeruginosa)	Inhibitory concentration, Staph. aureus (Staph. aureus)
O=[N+]([O-])[O-].O=[N+]([O-])[O-].O=[N+]([O-])[O-].[Ce+3] [Cerous nitrate, cerous nitrate]	2.5 μM per ml	at least 1.0 μM per ml	5.0 μM per ml	2.5 μM per ml	5.0 μM per ml
O=[N+]([O-])[O-].[Ag+] [Silver nitrate, silver nitrate]	0.005 μM per ml	–	0.1 μM per ml	0.025 μM per ml	0.005 μM per ml
